Results reported in PMC6934184, “Selective DNA-PKcs inhibition extends the therapeutic index of localized radiotherapy and chemotherapy” (The Journal of Clinical Investigation, 2019).

Target: T1, PDGFRA V561D (Homo sapiens, UniProt P16234, V561D)
T1 construct: purchased Thermo Fisher Scientific (Life Technologies) SelectScreen
Test: SelectScreen Z'LYTE
Type: biochemical
In short: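 NU5455 was profiled across the SelectScreen Broad panel of kinase activity and binding assays. Z'LYTE reactions such as CSF1R ran at apparent Km ATP, while the Adapta CAMK1 assay used ATP listed as 10. Values are given as percent.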

T1 sequence (P16234 24-1089 V561D): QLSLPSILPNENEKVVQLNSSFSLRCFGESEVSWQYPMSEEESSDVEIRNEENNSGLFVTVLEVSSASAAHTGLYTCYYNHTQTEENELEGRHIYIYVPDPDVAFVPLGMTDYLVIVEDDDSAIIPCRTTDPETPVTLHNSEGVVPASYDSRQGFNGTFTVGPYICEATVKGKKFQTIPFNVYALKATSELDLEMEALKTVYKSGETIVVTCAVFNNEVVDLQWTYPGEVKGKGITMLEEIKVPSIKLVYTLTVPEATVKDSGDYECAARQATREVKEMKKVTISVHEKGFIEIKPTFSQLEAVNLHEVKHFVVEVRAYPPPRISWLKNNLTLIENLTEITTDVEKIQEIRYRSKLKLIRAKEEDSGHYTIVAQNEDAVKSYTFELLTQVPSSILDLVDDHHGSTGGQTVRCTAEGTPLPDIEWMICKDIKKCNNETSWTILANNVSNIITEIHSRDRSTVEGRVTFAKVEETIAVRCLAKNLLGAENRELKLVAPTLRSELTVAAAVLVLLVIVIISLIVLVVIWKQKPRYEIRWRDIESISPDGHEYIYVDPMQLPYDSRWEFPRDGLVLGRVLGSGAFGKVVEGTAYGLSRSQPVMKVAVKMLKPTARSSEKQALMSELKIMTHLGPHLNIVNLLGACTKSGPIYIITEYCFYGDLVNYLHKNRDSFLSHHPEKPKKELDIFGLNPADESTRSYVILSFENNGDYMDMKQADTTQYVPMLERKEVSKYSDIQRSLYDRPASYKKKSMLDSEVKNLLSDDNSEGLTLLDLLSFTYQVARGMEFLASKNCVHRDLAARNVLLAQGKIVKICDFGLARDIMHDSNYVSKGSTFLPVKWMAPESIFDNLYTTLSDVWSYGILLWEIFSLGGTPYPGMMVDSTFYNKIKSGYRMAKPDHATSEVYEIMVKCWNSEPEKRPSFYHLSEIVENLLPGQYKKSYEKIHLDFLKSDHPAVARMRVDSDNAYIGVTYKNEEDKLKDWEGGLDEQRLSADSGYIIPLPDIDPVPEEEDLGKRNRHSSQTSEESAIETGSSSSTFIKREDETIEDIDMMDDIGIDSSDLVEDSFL

**Q.** With `CN(C(=O)CN1CCOCC1)c1ccc2sc3c(-c4cccc5c(=O)cc(N6CC7CCC(C6)O7)oc45)cccc3c2c1` [NU5455] as the molecule, how does the inhibition at 1 µM read?
**A.** The inhibition at 1 µM was -2.3%.
